Molecular target: T1, GPVI (platelet glycoprotein VI) (Homo sapiens, UniProt Q9HCN6)
T1 construct: gene GP6; native receptor on washed human platelets
T1 sequence (Q9HCN6 21-339): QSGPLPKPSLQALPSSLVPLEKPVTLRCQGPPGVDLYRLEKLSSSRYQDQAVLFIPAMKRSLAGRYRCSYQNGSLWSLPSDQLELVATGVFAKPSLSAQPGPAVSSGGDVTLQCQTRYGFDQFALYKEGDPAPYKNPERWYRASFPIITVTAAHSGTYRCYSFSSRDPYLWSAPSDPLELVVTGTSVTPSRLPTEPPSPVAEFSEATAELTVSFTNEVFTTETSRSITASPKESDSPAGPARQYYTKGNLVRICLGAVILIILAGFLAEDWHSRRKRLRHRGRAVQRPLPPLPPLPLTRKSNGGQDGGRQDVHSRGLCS
Assay: Inhibition of CRP-XL/collagen-induced Ca2+ release and aggregation in washed human platelets; rightward shift of CRP-XL curve
Format: cell-based
Details: read-out: Ca^2+ RELEASE / CRP

IC50: 40 µM
SMILES: CN(C)CCCSc1ccccc1NC(=O)/C=C/c1ccccc1 [cinanserin]

— PMC4074120, “Discovery of Novel GPVI Receptor Antagonists by Structure-Based Repurposing” (PLoS ONE, 2014)
